Laboratory results from ChEMBL document CHEMBL1201862, “PubChem BioAssay data set” (2004).
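Tested at 5 concentrations; 48 h exposure; 96-well plates; endpoints linearly interpolated, else capped at highest concentration. GI50: concentration for 50% inhibition of growth.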 Calls of active or inactive are those of the source. No stated cut-off is given here; in the data, active = GI50 up to about 1.1 µM and inactive = higher.

What was measured:
Assay in all cases: DTP human tumour cell line panel, 48 h
[1] = system: IGROV-1
[2] = system: HOP-92
[3] = system: M14
[4] = system: OVCAR-5
[5] = system: SK-MEL-2
[6] = system: MDA-N
[7] = system: HL-60
[8] = system: DU-145
[9] = system: U-251
[10] = system: OVCAR-8
[11] = system: SK-OV-3
[12] = system: RXF 393
[13] = system: TK-10
[14] = system: ACHN
[15] = system: COLO 205
[16] = system: UACC-62
[17] = system: UO-31
[18] = system: 786-0
[19] = system: HCT-116
[20] = system: SF-295

SMILES	GI50 [1]	GI50 [2]	GI50 [3]	GI50 [4]	GI50 [5]	GI50 [6]	GI50 [7]	GI50 [8]	GI50 [9]	GI50 [10]	GI50 [11]	GI50 [12]	GI50 [13]	GI50 [14]	GI50 [15]	GI50 [16]	GI50 [17]	GI50 [18]	GI50 [19]	GI50 [20]
CO[P@]1(=O)O[C@@H](c2ccccc2)[C@H](O)[C@@]1(O)c1ccccc1	> 100 µM (inactive)	> 100 µM (inactive)	> 100 µM (inactive)	> 100 µM (inactive)	> 100 µM (inactive)	> 100 µM (inactive)	> 100 µM (inactive)	> 100 µM (inactive)	> 100 µM (inactive)	> 100 µM (inactive)	> 100 µM (inactive)	> 100 µM (inactive)	> 100 µM (inactive)	> 100 µM (inactive)	> 100 µM (inactive)	> 100 µM (inactive)	> 100 µM (inactive)	> 100 µM (inactive)	> 100 µM (inactive)	> 100 µM (inactive)
COc1cccc(N(CN2C(=O)CCC2C(=O)O)C(C)=O)c1 (stereo not given)	> 100 µM (inactive)	> 100 µM (inactive)	> 100 µM (inactive)	> 100 µM (inactive)	> 100 µM (inactive)	> 100 µM (inactive)	> 100 µM (inactive)	> 100 µM (inactive)	> 100 µM (inactive)	> 100 µM (inactive)	> 100 µM (inactive)	> 100 µM (inactive)	> 100 µM (inactive)	> 100 µM (inactive)	> 100 µM (inactive)	> 100 µM (inactive)	> 100 µM (inactive)	> 100 µM (inactive)	> 100 µM (inactive)	> 100 µM (inactive)
COc1ccc2[nH]c3cc4c(=O)c5cc(OC)ccc5[nH]c4cc3c(=O)c2c1	> 100 µM (inactive)	> 100 µM (inactive)	> 100 µM (inactive)	> 100 µM (inactive)	> 100 µM (inactive)	> 100 µM (inactive)	10.8 µM (inactive)	> 100 µM (inactive)	> 100 µM (inactive)	> 100 µM (inactive)	> 100 µM (inactive)	> 100 µM (inactive)	> 100 µM (inactive)	> 100 µM (inactive)	> 100 µM (inactive)	> 100 µM (inactive)	97.5 µM (inactive)	99.1 µM (inactive)	> 100 µM (inactive)	> 100 µM (inactive)
CN[C@@H](Cc1cccc2ccccc12)C(=O)N[C@@H](CC(C)C)B(O)O	< 0.01 µM (active)	< 0.01 µM (active)	< 0.01 µM (active)	< 0.01 µM (active)	< 0.01 µM (active)	< 0.01 µM (active)	< 0.01 µM (active)	< 0.0109 µM (active)	< 0.0126 µM (active)	< 0.014 µM (active)	0.166 µM (active)	< 0.01 µM (active)	< 0.01 µM (active)	< 0.01 µM (active)	< 0.01 µM (active)	< 0.01 µM (active)	< 0.01 µM (active)	< 0.01 µM (active)	< 0.01 µM (active)	< 0.01 µM (active)
OC(CN1CCCCC1)c1ccc(/C=C/c2ccc(Cl)cc2)cc1 (stereo not given)	26.2 µM (inactive)	50.6 µM (inactive)	19.9 µM (inactive)	31.8 µM (inactive)	27.2 µM (inactive)	56.9 µM (inactive)	6.14 µM (inactive)	> 100 µM (inactive)	> 100 µM (inactive)	> 100 µM (inactive)	> 100 µM (inactive)	> 100 µM (inactive)	> 100 µM (inactive)	> 100 µM (inactive)	16.7 µM (inactive)	24.3 µM (inactive)	50.4 µM (inactive)	56.5 µM (inactive)	38.9 µM (inactive)	40.7 µM (inactive)
OCc1ccc2c(c1)CC1(C2)Cc2cc3c(cc2C1)CCC3	7.87 µM (inactive)	8.99 µM (inactive)	3.27 µM (inactive)	> 100 µM (inactive)	3.75 µM (inactive)	0.339 µM (active)	1.11 µM (active)	5.89 µM (inactive)	2.99 µM (inactive)	10.8 µM (inactive)	11.4 µM (inactive)	2.58 µM (inactive)	13 µM (inactive)	5.31 µM (inactive)	2.51 µM (inactive)	6.53 µM (inactive)	4.97 µM (inactive)	5.51 µM (inactive)	3.72 µM (inactive)	3.39 µM (inactive)
